Measured values taken from US8053437B2, “Furo[3. 2-B] pyrrol derivatives” (Amura Therapeutics Limited, priority 2006, dated 2011).

What was measured:
[1] = Liver microsomal incubations (HLM stability); assay type: in vitro ADME; settings: human liver microsomes
Method: Human and rat liver microsomes were purchased from BD Gentest (Woburn, Mass., USA) and β-nicotinamide adenine dinucleotide 2′-phosphate reduced tetrasodium salt (NADPH) was purchased from Sigma-Aldrich (Poole, Dorset, UK). All liver microsome incubations were carried out in 50 mM potassium phosphate buffer at pH 7.4, with a final microsomal protein concentration of 0.5 mg/mL. Compounds were taken from 5 mM DMSO stock solutions and diluted in incubation buffer to give a final concentration of […] with a final DMSO concentration of 0.5% v/v. In brief, compounds were added to the incubation buffer along with the liver microsomes and incubated at 37° C. for 10 minutes. The reaction was then initiated by the addition of NADPH, previously dissolved in incubation buffer, to give a final concentration of 1 mM and re-incubated at 37° C. Aliquots were removed at 2 and 60 minutes and quenched with an equal volume of cold acetonitrile. After mixing vigorously, the precipitated protein matter was removed by filtration (Multiscreen Solvinert filter plates, Millipore, Bedford, Mass., USA) and the filtrate analysed by reverse phase HPLC with mass spectrometric detection, using single ion monitoring of the [M+H]^+ species. Metabolic turnover was determined by comparison of peak areas from the ion chromatograms of the parent compound at 2 and 60 minutes and expressed as percent remaining at 1 hour.

[2] = LogD determinations (shake-flask, octanol/PBS); assay type: physicochemical; settings: 1-octanol/phosphate buffered saline; pH 7.4; ion-count method
Method: LogD(PBS) determinations were performed in 96 well microtitre plates using a miniaturised “shake-flask” method. In brief, compounds were taken from 10 mM DMSO stock solutions and added to wells containing equal volumes of phosphate buffered saline (10 mM; pH 7.4) (PBS) and 1-octanol (Sigma-Aldrich, Poole, Dorset, UK) to give a final concentration of 50 μM. The plates were then capped and mixed vigorously for 1 hour on a microtitre plate shaker, after which they were left to stand, allowing the PBS and octanol phases to separate. The PBS layer was analysed by reverse phase HPLC with mass spectrometric detection, using single ion monitoring of the [M+H]^+ species. LogD(PBS) was determined by comparison of the peak area from the ion chromatogram of the compound in the PBS phase with that of a 50 μM standard of the same compound dissolved in acetonitrile/water (50:50) and calculated using the following formula: […]
Where AUCstd and AUCpbs are the peak areas from the standard and test ion chromatograms respectively.

[3] = Plasma incubations (human plasma stability); assay type: in vitro ADME; settings: 37° C.
Method: Human and rat plasma were purchased from Innovative Research Inc. (Southfield. MI, USA). Compounds were taken from 5 mM DMSO stock solutions and added to plasma, which had previously been incubated at 37° C., to give a final concentration of 25 μM and re-incubated. Aliquots were removed at 2 and 60 minutes and quenched with an equal volume of cold acetonitrile. After mixing vigorously, the precipitated protein matter was removed by filtration (Multiscreen Solvinert filter plates, Millipore, Bedford, Mass., USA) and the filtrate analysed by reverse phase HPLC with mass spectrometric detection, using single ion monitoring of the [M+H]^+ species. Metabolic turnover was determined by comparison of peak areas from the ion chromatograms of the parent compound at 2 and 60 minutes and expressed as percent remaining at 1 hour: […]

[4] = target: T1, Human recombinant cathepsin K (Homo sapiens, UniProt P43235); assay: In vitro cathepsin Ki inhibition measurements; assay type: biochemical; settings: read-out: In vitro Ki (nM) vs Cath K
T1 construct: purchased B. Turk, Josef, Stefan Institute, Ljubljana, Slovenia
T1 sequence (P43235 115-329): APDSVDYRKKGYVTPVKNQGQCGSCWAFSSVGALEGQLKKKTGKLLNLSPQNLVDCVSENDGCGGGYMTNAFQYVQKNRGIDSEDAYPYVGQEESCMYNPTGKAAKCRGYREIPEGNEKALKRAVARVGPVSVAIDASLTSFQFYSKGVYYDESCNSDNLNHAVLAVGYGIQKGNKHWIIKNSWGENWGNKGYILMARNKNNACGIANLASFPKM
Method: Stock solutions of substrate or inhibitor were made up to 10 mM in 100% dimethylsulfoxide (DMSO) (Rathburns, Glasgow, U.K.) and diluted as appropriately required. In all cases the DMSO concentration in the assays was maintained at less than 1% (vol./vol.). The equilibrium inhibition constants (Ki^ss) for each compound were measured under steady-state conditions monitoring enzyme activity as a function of inhibitor concentration. The values were calculated on the assumption of pure competitive behaviour (Cornish-Bowden, A. Fundamentals of enzyme kinetics Portland Press; 1995, 93-128.). Human recombinant cathepsin K (0.25 nM final; B. Turk, Josef, Stefan Institute, Ljubljana, Slovenia), was routinely assayed in 100 mM sodium acetate; pH 5.5 containing 1 mM EDTA, 10 mM L-cysteine and 1.8 μM Z-Leu-Arg-AMC ([S]=KM).
The apparent inhibition constant (Ki) for each compound was determined on the basis that inhibition was reversible and occurred by a pure-competitive mechanism. The Ki values were calculated, from the dependence of enzyme activity as a function of inhibitor concentration, by direct regression analysis (Prism v 3.02) using Equation 2 (Cornish-Bowden, A., 1995).
In situations where the apparent dissociation constant (Ki^app) approached the enzyme concentrations, the Ki^app values were calculated using a quadratic solution in the form described by Equation 3 (Morrison, J. F. Trends Biochem. Sci., 7, 102-105, 1982; Morrison, J. F. Biochim. Biophys. Acta, 185, 269-286, 1969; Stone, S. R. and Hofsteenge, J. Biochemistry, 25, 4622-4628, 1986).
In Equation 3 ‘vi’ is the observed residual activity, ‘F’ is the difference between the maximum activity (i.e. in the absence of inhibitor) and minimum enzyme activity, ‘Eo’ is the total enzyme concentration, ‘Ki^app’ is the apparent dissociation constant and ‘Io’ is the inhibitor concentration. Curves were fitted by non-linear regression analysis (Prism) using a fixed value for the enzyme concentration. Equation 4 was used to account for the substrate kinetics, where ‘Ki’ is the inhibition constant, ‘[So]’ is the initial substrate concentration and ‘KM^app’ is the apparent macroscopic binding (Michaelis) constant for the substrate (Morrison, 1982).

human osteoclasts [5] = assay: Human osteoclast resorption assay; settings: human osteoclast activity, read-out: Cell-based % Inh. @ 1 μM Human
Method: Bone resorption was studied using a model where human osteoclast precursor cells were cultured on bovine bone slices for 9 days and allowed to differentiate into bone-resorbing osteoclasts. The formed mature osteoclasts were then allowed to resorb bone. The assay was performed by Pharmatest Services Ltd, ItAinen Pitkakatu 4C, Turku, Finland. After the culture period, bone collagen degradation products were quantified from the culture medium as an index of bone resorption. Inhibitor compounds were added into the cell cultures after the differentiation period and their effects on the resorbing activity of mature osteoclasts were determined. The studies included a baseline group without added compounds and a positive control group where a potent cathepsin K inhibitor E-64 was added.
Human peripheral blood monocytes were suspended to culture medium and allowed to attach to bovine bone slices. The bone slices were transferred into 96-well tissue culture plates containing culture medium with appropriate amounts of important growth factors favouring osteoclast differentiation, including M-CSF, RANK-ligand and TGF-β. The cells were incubated in a CO2 incubator in humidified atmosphere of 95% air and 5% carbon dioxide at 37° C. At day 7 when osteoclast differentiation was complete, the culture medium was replaced with culture medium containing conditions favouring osteoclast activity. The cell culture was continued for an additional 2 days, during which the formed mature osteoclasts were allowed to resorb bone in the presence of vehicle, control inhibitor (E64) or test compounds. At the end of the culture, bone collagen degradation products released into the culture medium were determined using a commercially available ELISA method (CrossLaps® for culture, Nordic Bioscience, Herlev, Denmark) as an index of bone resorption (see Bagger, Y. Z., et al, J. Bone. Miner. Res. 14 (suppl. 1), S370).

rat osteoclasts = assay: Rat osteoclast resorption assay; settings: read-out: Cell-based % Inh. @ 1 μM Rat
Method: Bone resorption was studied using a model where mature osteoclasts derived from rat bone were cultured on bovine bone slices for 3 days and allowed to resorb bone in the presence of inhibitor, positive control (E-64) or vehicle. More specifically, tibia, femori and humeri were removed from 1 day old rat pups. The endosteal surfaces of the bones were scraped with a scapelto release osteoclasts into the culture medium and the osteoclasts were allowed to attach to bovine bone slices. After the culture period, bone collagen degradation products were quantified from the culture medium as an index of bone resorption. The assay was performed by Pharmatest Services Ltd, Itilinen Pitkakatu 4C, Turku, Finland.

human osteoclasts [6] = settings: human osteoclast, literature value; cited from earlier work

SMILES	HLM % rem. @ 1 hr [1] [%]	logD [2]	Human Plasma Stability % rem. @ 1 hr [3] [%]	Ki [4] [nM]	inhibition at 1 µM (human osteoclasts [5]) [%]	inhibition at 1 µM (rat osteoclasts) [%]	Cell-based % Inh. @ 1 μM Human (Lit.) (human osteoclasts [6])
CCC(C)[C@H](NC(=O)c1ccc(N2CCN(C)CC2)cc1)C(=O)N1CC[C@H]2OCC(=O)[C@H]21 (stereo in doubt) [Example 9, N-((2S,3S)-3-methyl-1-oxo-1-((3aS,6aR)-3-oxodihydro-2H-furo [3,2-b]pyrrol-4(5H,6H,6aH)-yl)pentan-2-yl)-4-(4-methylpiperazin-1-yl)benzamide]	94	1.15	91	5	77	10	–
CC(C)C[C@H](NC(=O)c1ccc(N2CCN(C)CC2)cc1)C(=O)N1CC[C@H]2OCC(=O)[C@H]21 [Example 1, reference compound]	95	–	95	–	55	43	–
CCN1CCN(c2ccc(C(=O)N[C@@H](CC(C)C)C(=O)N3CC[C@H]4OCC(=O)[C@H]43)cc2)CC1 [Example 2, 4-(4-ethylpiperazin-1-yl)-N—((S)-4-methyl-1-oxo-1-((3aS,6aR)-3-oxodihydro-2H-furo[3,2-b]pyrrol-4(5H,6H,6aH)-yl)pentan-2-yl)benzamide, reference compound]	88	–	93	–	58	40	–
CN1CCN(c2ccc(C(=O)N[C@@H](CC(C)(C)C)C(=O)N3CC[C@H]4OCC(=O)[C@H]43)cc2)CC1 [Example 3, N—((S)-4,4-dimethyl-1-oxo-1-((3aS,6aR)-3-oxo-dihydro-2H-furo[3,2-b]pyrrol-4(5H,6H,6aH)-yl)pentan-2-yl)-4-(4-methylpiperazin-1-yl)benzamide]	96	0.87	95	4	79	75	–
CCCN1CCN(c2ccc(C(=O)N[C@@H](CC(C)(C)C)C(=O)N3CC[C@H]4OCC(=O)[C@H]43)cc2)CC1 [Example 4, N—((S)-4,4-dimethyl-1-oxo-1-((3aS,6aR)-3-oxo-dihydro-2H-furo[3,2-b]pyrrol-4(5H,6H,6aH)-yl)pentan-2-yl)-4-(4-propylpiperazin-1-yl)benzamide]	82	1.87	92	12	75	72	–
COCCN1CCN(c2ccc(C(=O)N[C@@H](CC(C)(C)C)C(=O)N3CC[C@H]4OCC(=O)[C@H]43)cc2)CC1 [Example 5, N—((S)-4,4-dimethyl-1-oxo-1-((3aS,6aR)-3-oxo-dihydro-2H-furo[3,2-b]pyrrol-4(5H,6H,6aH)-yl)pentan-2-yl)-4-(4-(2-methoxyethyl)piperazin-1-yl)benzamide]	92	1.51	90	14	72	79	–
CN1CCN(c2ccc(C(=O)N[C@H](C(=O)N3CC[C@H]4OCC(=O)[C@H]43)C(C)(C)C)cc2)CC1 [Example 8, N—((S)-3,3-dimethyl-1-oxo-1-((3aS,6aR)-3-oxo-dihydro-2H-furo[3,2-b]pyrrol-4(5H,6H,6aH)-yl)butan-2-yl)-4-(4-methylpiperazin-1-yl)benzamide]	89	0.81	93	6	82	20	–
CC(C)C[C@H](NC(=O)c1ccc(C(C)(C)C)cc1)C(=O)N1CC[C@H]2OCC(=O)[C@H]21 [Prior art compound 23, reference compound]	70	–	75	–	–	–	Lit. 60%
